In general, inhibition refers to the change of the read-out against control, counted positive when it falls.

The values below come from patent US11491122B2, “Use of a combination of Adelmidrol and hyaluronic acid in the treatment of pain caused by osteoarthritis and epithelial dysfunctions” (Epitech Group S.p.A., priority 2014, dated 2022).

One series concerns the target T1, FAAH (Rattus norvegicus, UniProt P97612).
T1 construct: was also measured using homogenates rat brain membranes; from tissue; host or cells: rat brain membrane homogenates
T1 sequence (P97612 1-579): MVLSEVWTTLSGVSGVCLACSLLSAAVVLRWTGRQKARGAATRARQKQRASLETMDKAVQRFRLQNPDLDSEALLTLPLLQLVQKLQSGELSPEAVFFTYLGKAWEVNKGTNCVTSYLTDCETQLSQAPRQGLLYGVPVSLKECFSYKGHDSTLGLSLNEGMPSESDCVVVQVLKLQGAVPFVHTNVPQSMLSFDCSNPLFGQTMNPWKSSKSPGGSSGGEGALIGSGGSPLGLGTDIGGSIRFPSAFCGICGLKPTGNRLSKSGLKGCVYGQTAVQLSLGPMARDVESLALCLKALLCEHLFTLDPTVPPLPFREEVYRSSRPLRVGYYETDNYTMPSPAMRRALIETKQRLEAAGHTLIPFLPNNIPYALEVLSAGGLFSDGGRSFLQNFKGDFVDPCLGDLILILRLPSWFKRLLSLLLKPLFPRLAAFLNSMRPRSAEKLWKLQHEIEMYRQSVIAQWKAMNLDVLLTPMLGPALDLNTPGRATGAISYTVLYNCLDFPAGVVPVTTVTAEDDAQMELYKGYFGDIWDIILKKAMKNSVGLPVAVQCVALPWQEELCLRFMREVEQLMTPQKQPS
Nature of the series: Maximum reduction of the activity of the PEA-degrading enzyme FAAH, rat brain membrane homogenates. Type of series: biochemical. The method, then: (§1) The maximum reduction of the activity of the palmitoylethanolamide-degrading enzymes (NAAA and FAAH) was also measured using homogenates rat brain membranes [Ueda N et al Chem Phys Lipids. 2000 November; 108(1-2):107-21; Tsuboi K. Et al J Biol Chem. 2005 March 25; 280(12):11082-92].

Another series concerns TNF-α. Nature of the series: Osteoarthritis induced by sodium monoiodoacetate: TNF-α in the synovial fluid (ELISA). Type of series: in vivo, rat. The following applies: intra-articular Adelmidrol, MIA osteoarthritic rats. As for the experimental part:
(§2) The experiments were conducted using adult male rats of the Wistar strain (weight 200-250 grams) supplied by Harlan Italy, put in enclosures for a week in standard dietary and environmental conditions (temperature 21±1° C., humidity 60±10%, light 12 hours a day and water and food ad libitum) before being used in the experiments. […] MIA acts locally by inhibiting glycolysis, destroying the metabolism of chondrocytes and producing cartilage degeneration. At the time of the induction of osteoarthritis, MIA was dissolved in sterile saline. Before carrying out the intra-articular administration, the rats were anesthetized with pentobarbital sodium dissolved in saline at the dose of 60 mg/kg, in an administration volume of 0.2 ml/hg intraperitoneally (i.p.). The animals that received the MIA injection in their right knee represent the osteoarthritic (OA) group. […]
The determination of TNF-α levels in the synovial fluid was made using an ELISA (Enzyme Linked Immuno-Sorbent-Assay) immunoenzymatic assay using a commercial kit from Biosource International Inc. The method uses a procedure in which the antigen is trapped between two layers of antibodies and for this reason it is called an ELISA sandwich. […] Following the enzymatic reaction, a product is generated whose staining intensity is measured spectrophotometrically and is directly proportional to the concentration of TNF-α in the samples. […]
(In an ELISA, binding on a coated surface is turned into a signal by an enzyme label.)

The test system of series [1] is patients with Bladder Pain Syndrome (BPS). The series can be described thus: Intravesical instillation in patients with Painful Bladder Syndrome (BPS). Type of series: in vivo, human. The following applies: 7 female BPS patients. The method, then: A sterile solution containing 2% Adelmidrol and 0.1% hyaluronic acid sodium salt was instilled into the bladder of no. 7 female patients through catheter after the complete emptying of the bladder itself. […] Most of the times, the patients had comorbidity with other pelvic diseases (vulvar vestibulitis 4/7; IBS (irritable bowel syndrome) 2/7; Fibromyalgia Syndrome 1/7, Recurrent Urinary Tract Infections (RUTI) 3/7).
Treatments were carried out as attack therapy (one intravesical instillation per week for 8 weeks), followed by maintenance therapy (one instillation per month for 6 months).
Using a dedicated diary, the frequency of urination (measured as the number of urinations in 12 hours), both during the day and at night, and the discomfort with bladder full were controlled, analyzing the pain, the feeling of weight and the burning in the pelvic area (all three parameters were measured by means of numerical scale VAS, before treatment, at the end of the attack therapy and at the end of the maintenance therapy).

A further series relates to HaCaT cells. Nature of the series: Endogenous levels of AEA, 2-AG, PEA and OEA in HaCaT cells stimulated with Adelmidrol (LC-APCI-MS). Type of series: cell-based, human. The following applies: Adelmidrol 10 μM, 24 hours. The method, then:
Cultured human keratinocytes, HaCaT, were grown in DMEM (Dulbecco's Modified Eagle Medium) supplemented with glutamine (2 mM), penicillin (400 U/ml), streptomycin ([…]), 10% FBS (Fetal Bovine Serum), in the presence of 5% CO2 and at 37° C. Thereafter, cells plated in 6-well multi-wells (9×10^5/well), once 70% confluence had been reached, were stimulated with Adelmidrol, 10 μM, or carrier (Ctrl, 0.05% methanol) for 24 hours in the presence of 5% CO2 at 37° C. After 24 hours, the cells and the surnatants were homogenized in 5 vol. of a chloroform/methanol TRIS-HCl 50 mM pH 7.4 (2:1:1) solution containing 10 pmol of [^2H]8anandamide (AEA) and 50 pmol of [^2H]52-arachidonoylglycerol (2-AG), [^2H]4palmitoylethanolamide (PEA) and [^2H]2oleoylethanolamide (OEA) (Bisogno et al., 1997). The organic-lipidic phase obtained from the four extractions with chloroform was subjected to purification by silica column chromatography, eluted by increasing concentrations of methanol in chloroform. The chloroform/methanol 90:10 fraction containing AEA, 2-AG, PEA and OEA was analyzed by liquid chromatography coupled to mass spectrometry using chemical ionization at atmospheric pressure (LC-APCI-MS) (Marsicano et al., 2002). The equipment used includes a Shimadzu HPLC (LC-10ADVP) coupled with a Shimadzu spectrometer (LCMS-2010) via a Shimadzu APCI interface. The ionization source temperature is 400° C. and a Phenomenex reverse phase HPLC column (C-18, 5 microns, 150×4.6 mm) is used. The mobile phase, consisting of a mixture of methanol/water/acetic acid (85/15/0.1%), passes through the column at a rate of 1 ml/min. The mass spectrum determination is carried out according to the selected ion monitoring (SIM) [Di Marzo et al. Nature 2001; 410:822-825]. Selected ions correspond to mass/charge values (m/z) of 356 and 348 (molecular ions of deuterated and non-deuterated AEA), 384.35 and 379.35 (molecular ions of deuterated and non-deuterated 2-AG), 304 and 300 (molecular ions of deuterated and non-deuterated PEA), 328 and 326 (molecular ions of deuterated and non-deuterated OEA). The quantity expressed as pmol/mg of lipid extract were compared using ANOVA followed by the Student-Newman-Keuls test.

The test system of series [2] is knee osteoarthritis induced by monosodium iodoacetate (MIA). Nature of the series: Osteoarthritis induced by sodium monoiodoacetate: knee edema by digital caliper. Type of series: in vivo, rat. The following applies: intra-articular Adelmidrol 1.5, 15 and 150 μg/injection, days 1, 8, 15; dose-dependent, evident at all analyzed times. As for the experimental part: as §2, with “(i.p.).” for “(i.p.). The animals that received the MIA injection in their right knee represent the osteoarthritic (OA) group.”
In order to evaluate the formation of the edema in the right knee of the animals after MIA injection, a digital manual slide caliper (measuring capacity 0-150 mm; resolution: 0.01 mm; ROHS Compliant Electronic Digital Caliper—2 Biological Instruments SNC, Italy) was used. […] The edema was calculated as the difference between the […] of the right knee and left knee. […]
The various parameters are measured at different times in relation to the parameter itself (e.g. inflammatory parameters are evaluated only in the first week since the MIA, pain is always evaluated before and 60 min. after the administration of Adelmidrol).

For series [3] the following is noted: experimental animals, oral administration; cited from earlier work.
The conditions of series [4]: cited from earlier work.
The target of a further series is T2, NAAA (Rattus norvegicus, UniProt Q5KTC7).
T2 construct: was also measured using homogenates rat brain membranes; from tissue; host or cells: rat brain membrane homogenates
T2 sequence (Q5KTC7 131-362 limits assumed): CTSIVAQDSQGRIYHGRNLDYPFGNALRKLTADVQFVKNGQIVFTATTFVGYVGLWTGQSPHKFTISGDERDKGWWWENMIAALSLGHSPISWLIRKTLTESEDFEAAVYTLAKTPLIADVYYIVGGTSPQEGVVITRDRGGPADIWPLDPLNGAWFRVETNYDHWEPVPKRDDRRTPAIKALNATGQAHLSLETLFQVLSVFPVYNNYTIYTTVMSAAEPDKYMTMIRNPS
T2 sequence (Q5KTC7 34-130 limits assumed): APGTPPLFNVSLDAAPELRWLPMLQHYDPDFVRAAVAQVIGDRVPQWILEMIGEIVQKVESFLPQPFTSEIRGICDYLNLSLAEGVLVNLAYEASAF
Nature of the series: Maximum reduction of the activity of the PEA-degrading enzyme NAAA, rat brain membrane homogenates. Format: biochemical. The method, then:
as §1

As for `O=C(CCCCCCCC(=O)NCCO)NCCO` [Adelmidrol, N,N′-Bis(2-hydroxyethyl)nonandiamide], the “inhibition of the activity of FAAH (in words)” value on FAAH was “does not inhibit”. Also, at FAAH (Treatment with Adelmidrol 50 μM, Control 21.22 ± 3.18%, read-out: Maximum inhibition of the enzymatic activity (expressed as IC50), Enzyme FAAH), the inhibition at 50 µM is 20.1 ± 4.12%. In the series with TNF-α, the “levels of TNF-α in the synovial fluid” value is given as “reduction”. In series [1], the “all the parameters evaluated (urination frequency, pain, weight, burning) after treatment” value is on record as “marked improvement”. Besides, in the series on HaCaT cells (vs Ctrl), the “levels of 2-AG in HaCaT cells” value is recorded as “No significant variation”, the “levels of AEA in HaCaT cells” value is listed as “No significant variation” and the “levels of OEA in HaCaT cells” value is reported as “No significant variation”. Moreover, the “levels of PEA in HaCaT cells” value with HaCaT cells (basal values 31.6±5.6, n=6, P<0.0001) is 66.4±9.6 pmol/mg of lipid extract. Besides, the “anti-inflammatory effect (knee edema)” value in series [2] is given as “strong anti-inflammatory effect”. Moreover, the LD50 in series [3] is 2-3 g/kg body weight. Besides, in series [4], the solubility in lipids result was “good solubility in lipids” and the solubility in water entry was “high solubility in water”. Moreover, the “inhibition of the activity of NAAA (in words)” value against NAAA was “does not inhibit”. The inhibition at 50 µM at NAAA (Treatment with Adelmidrol 50 μM, Control 11.43 ± 1.72%, read-out: Maximum inhibition of the enzymatic activity (expressed as IC50), Enzyme NAAA) was determined as 11.3 ± 2.26%.
